pEC50: −log10 of the molar value. Like-named read-outs stand apart in the source and are kept apart here.
Key:
HBV = HBV inhibitory activity: HBV DNA in the culture medium of HepG2.2.15 cells by q-PCR; type: cell-based; details: HepG2.2.15 cells, 6 days of compound treatment, HBV DNA in culture medium by q-PCR, highest concentration 10 μM, read-out: EC50
In short: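 HepG2.2.15 cells in 2% FBS medium, 40,000 per well, treated 6 days with compound (medium refreshed once), eight 3-fold dilutions from 10 μM top. HBV DNA extracted from culture medium and quantified by q-PCR; EC50 averaged over repeats. Cytotoxicity run in parallel at 5,000 cells per well, top 100 μM, giving CC50.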

[1] = Cytotoxicity determination in HepG2.2.15 cells (CCK-8); type: cell-based; details: human, 6 days of compound treatment, CCK-8, highest concentration 100 μM
In short: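 HepG2.2.15 cells seeded at 5,000 cells/well in 2% FBS medium, incubated overnight at 37° C., then treated 6 days with compounds (8 points, 3-fold dilutions, top 100 μM), medium refreshed once midway. CCK-8 added for 2.5 h; A450 read against 630 nm reference; CC50 calculated, averaged over repeats.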

[2] = Hepatitis B virus, HepG2.2.15, 144 h

SMILES | pEC50 (HBV; [2]) | CC50 at 6 days [1] [nM] | pEC50 (HBV)
COC(=O)C1=C(C2CCN(S(=O)(=O)N3CCOCC3)CC2)NC(c2nccs2)=NC1c1ccc(F)cc1Cl (stereo not shown) [Compound 164, Methyl 4-(2-chloro-4-fluorophenyl)-6-(1-(morpholinosulfonyl)piperidin-4-yl)-2-(thiazol-2-yl)-1,4-dihydropyrimidine-5-carboxylate] | 7.24 | 57400 | 
COC(=O)C1=C([C@H]2CC[C@H](C(=O)O)CC2)NC(c2nccs2)=NC1c1cccc(F)c1Br (stereo partly shown) [Compound 152A] | 7.04 | 39500 | 
COC(=O)C1=C(C2CCCN(S(C)(=O)=O)C2)NC(c2nccs2)=NC1c1cccc(F)c1Cl (single isomer, unassigned) [Compound 98A, Methyl 4-(2-chloro-3-fluorophenyl)-6-(1-(methylsulfonyl)piperidin-3-yl)-2-(thiazol-2-yl)-1,4-dihydropyrimidine-5-carboxylate] | 6.57 | 11400 | 
COC(=O)C1=C(C2CCN(C(=O)C3(C(=O)OC)CC3)CC2)NC(c2nccs2)=NC1c1ccc(F)cc1Cl (stereo not shown) [Compound 108, Methyl-4-(2-chloro-4-fluorophenyl)-6-(1-(1-(methoxycarbonyl)-cyclopropane-1-carbonyl)piperidin-4-yl)-2-(thiazol-2-yl)-1,4-dihydropyrimidine-5-carboxylate] | 7.11 | 26900 | 
COC(=O)C1=C([C@H]2CC[C@H](NS(=O)(=O)CCCO)CC2)NC(c2nccs2)=NC1c1ccc(F)c(F)c1Cl (relative stereo) [Compound 253B, (trans)-Methyl 4-(2-chloro-3,4-difluorophenyl)-6-(4-(3-hydroxypropylsulfonamido)cyclohexyl)-2-(thiazol-2-yl)-1,4-dihydropyrimidine-5-carboxylate] | 8.10 | 13700 | 
CCOC(=O)C1=C(C2CCCCC2)NC(c2nccs2)=NC1c1ccc(F)cc1Cl (single isomer, unassigned) [Compound 47A, Ethyl 4-(2-chloro-4-fluorophenyl)-6-cyclohexyl-2-(thiazol-2-yl)-1,4-dihydro-pyrimidine-5-carboxylate] | 6.56 | 30900 | 
COC(=O)C1=C([C@H]2CC[C@@H](NS(C)(=O)=O)CC2)NC(c2ncc(F)cc2F)=NC1c1ccc(F)cc1Cl (mixture of isomers) [Compound 399, (cis)-Methyl 4-(2-chloro-4-fluorophenyl)-2-(3,5-difluoropyridin-2-yl)-6-(4-(methylsulfonamido)cyclohexyl)-1,4-dihydropyrimidine-5-carboxylate] | 7.48 | 36800 | 
COC(=O)CCS(=O)(=O)N1CCC(C2=C(C(=O)OC)C(c3ccc(F)c(F)c3Cl)N=C(c3nccs3)N2)CC1 (stereo not shown) [Compound 157A, Methyl 4-(2-chloro-3,4-difluorophenyl)-6-(1-((3-methoxy-3-oxopropyl)sulfonyl)piperidin-4-yl)-2-(thiazol-2-yl)-1,4-dihydropyrimidine-5-carboxylate] | 7.07 | 80000 | 
COC(=O)C1=C(C2CCN(S(=O)(=O)[C@H]3C[C@@H](CO)C3)CC2)NC(c2nccs2)=NC1c1ccc(F)cc1Cl (relative stereo) [Compound 357B, (cis)-Methyl 4-(2-chloro-4-fluorophenyl)-6-(1-((3-(hydroxymethyl)cyclobutyl)sulfonyl)piperidin-4-yl)-2-(thiazol-2-yl)-1,4-dihydropyrimidine-5-carboxylate] | 7.44 | 15400 | 
COC(=O)C1=C(C2CCN(S(=O)(=O)c3cnn(C4CC4)c3)CC2)NC(c2nccs2)=NC1c1ccc(F)cc1Cl (stereo not shown) [Compound 254] | 7.33 | > 100000 | 
CCOC(=O)C1=C(C2CCN(S(=O)(=O)[C@H]3C[C@H](C(=O)O)C3)CC2)NC(c2nccs2)=NC1c1ccc(F)c(F)c1Cl (relative stereo) [Compound 370B, (trans)-3-((4-(6-(2-Chloro-3,4-difluorophenyl)-5-(ethoxycarbonyl)-2-(thiazol-2-yl)-3,6-dihydropyrimidin-4-yl)piperidin-1-yl)sulfonyl)cyclobutanecarboxylic Acid] | 8.40 | 23200 | 
COC(=O)C1=C(C2CCN(S(=O)(=O)[C@H]3CC[C@H](C(=O)O)CC3)CC2)NC(c2nccs2)=NC1c1ccc(F)cc1Cl (relative stereo) [Compound 313B, (trans)-4-((4-(6-(2-Chloro-4-fluorophenyl)-5-(methoxycarbonyl)-2-(thiazol-2-yl)-3,6-dihydropyrimidin-4-yl)piperidin-1-yl)sulfonyl)-cyclohexanecarboxylic Acid] | 7.96 | 34600 | 
COCCS(=O)(=O)N[C@H]1CC[C@H](C2=C(C(=O)OC)C(c3ccc(F)cc3Cl)N=C(c3nccs3)N2)CC1 (single isomer, unassigned) [Compound 182A, (trans)Methyl 4-(2-chloro-4-fluorophenyl)-6-(4-(2-methoxyethylsulfonamido)cyclohexyl)-2-(thiazol-2-yl)-1,4-dihydropyrimidine-5-carboxylate] | 7.03 | 33600 | 
COC(=O)C1=C([C@H]2CC[C@H](O)CC2)NC(c2nccs2)=NC1c1cccc(F)c1Cl (single isomer, unassigned) [Compound 381A, (trans)-Methyl 4-(2-chloro-3-fluorophenyl)-6-(4-hydroxycyclohexyl)-2-(thiazol-2-yl)-1,4-dihydropyrimidine-5-carboxylate] | 7.15 | 28500 | 
CCOC(=O)C1=C([C@@H]2CC[C@H](C(=O)O)OC2)NC(c2nccs2)=NC1c1ccc(F)cc1Cl (single isomer, unassigned) [Compound 265E, (cis)-5-(−6-(2-Chloro-4-fluorophenyl)-5-(ethoxycarbonyl)-2-(thiazol-2-yl)-3,6-dihydropyrimidin-4-yl)tetrahydro-2H-pyran-2-carboxylic Acid] |  | 92300 | 6.01
COC(=O)C1=C(C2CCN(S(=O)(=O)[C@H]3C[C@H](C(=O)O)C3)CC2)NC(c2nccs2)=NC1c1cccc(F)c1Br (relative stereo) [Compound 439B, (trans)-3-((4-(6-(2-Bromo-3-fluorophenyl)-5-(methoxycarbonyl)-2-(thiazol-2-yl)-3,6-dihydropyrimidin-4-yl)piperidin-1-yl)sulfonyl)cyclobutanecarboxylic Acid] | 7.18 | 53800 | 
COC(=O)C1=C([C@H]2CCC[C@@H](C(=O)OC)C2)NC(c2nccs2)=NC1c1cccc(F)c1Cl (single isomer, unassigned) [Compound 24Q, cis-Methyl 4-(2-chloro-3-fluorophenyl)-6-(3-(methoxycarbonyl)-cyclohexyl)-2-(thiazol-2-yl)-1,4-dihydropyrimidine-5-carboxylate] | 6.02 | 3520 | 
COC(=O)C1=C(C2CCN(S(C)(=O)=O)CC2)NC(c2nccs2)=NC1c1ccc(Cl)c(F)c1 (single isomer, unassigned) [Compound 124B, 4-(4-Chloro-3-fluoro-phenyl)-6-(1-methanesulfonyl-piperidin-4-yl)-2-thiazol-2-yl-1,4-dihydro-pyrimidine-5-carboxylic Acid Methyl Ester] | 7.07 | 6600 | 
COC(=O)C1=C([C@H]2CC[C@H](CC(=O)O)CC2)NC(c2nccs2)=NC1c1cccc(F)c1Cl (relative stereo) [Compound 29, 2-(trans-4-(6-(2-Chloro-3-fluorophenyl)-5-(methoxycarbonyl)-2-(thiazol-2-yl)-3,6-dihydropyrimidin-4-yl)cyclohexyl)acetic Acid] | 6.91 | 33600 | 
CCOC(=O)C1=C(C2CCN(S(=O)(=O)CCO)CC2)NC(c2nccs2)=NC1c1ccc(F)c(F)c1Cl (single isomer, unassigned) [Compound 356B, Ethyl 4-(2-chloro-3,4-difluorophenyl)-6-(1-((2-hydroxyethyl)sulfonyl)piperidin-4-yl)-2-(thiazol-2-yl)-1,4-dihydropyrimidine-5-carboxylate] | 8.22 | 12200 | 
COC(=O)C1=C([C@H]2CC[C@H](N(CC#N)S(C)(=O)=O)CC2)NC(c2nccs2)=NC1c1ccc(F)cc1Cl (single isomer, unassigned) [Compound 448A, (trans)-Methyl 4-(2-chloro-4-fluorophenyl)-6-(4-(N-(cyanomethyl)methylsulfonamido)cyclohexyl)-2-(thiazol-2-yl)-1,4-dihydropyrimidine-5-carboxylate] | 8.10 | > 100000 | 
CCOC(=O)C1=C([C@@H]2C[C@H]2CC(=O)O)NC(c2nccs2)=NC1c1ccc(F)cc1Cl (single isomer, unassigned) [Compound 92, 2-(trans-2-(6-(2-Chloro-4-fluorophenyl)-5-(ethoxycarbonyl)-2-(thiazol-2-yl)-3,6-dihydropyrimidin-4-yl)cyclopropyl)acetic Acid] | 6.49 | 99000 | 
COC(=O)C1=C(C2CCN(S(=O)(=O)CCC(=O)O)CC2)NC(c2nccs2)=NC1c1ccc(F)cc1Cl (stereo not shown) [Compound 105, 3-((4-(6-(2-Chloro-4-fluorophenyl)-5-(methoxycarbonyl)-2-(thiazol-2-yl)-3,6-dihydropyrimidin-4-yl)piperidin-1-yl)sulfonyl)propanoic Acid] | 6.82 | 14400 | 
